Assay results reported in PMC7175122 (Biomolecules, 2020).
Entries after “also recorded” stand apart in the source; their conditions may differ. Where two headings read alike, the source gives them in different places. One block for each compound: values may come before it. Square brackets hold non-standard residues; d marks the D form. Side chains are listed from the residue outwards. Peptide text beside a SMILES is read from it. hArg = N=C(N)NCCCC[C@H](N)C(=O)O; ΔPro = O=C(O)[C@@H]1C=CCN1; Dab = NCC[C@H](N)C(=O)O; Dhp = not defined here

Assays:
VEGF-A165/NRP-1 complex [1] = target: T1, VEGF-A165/NRP-1 complex (Homo sapiens, UniProt O14786); experiment: Competitive NRP-1-binding assay (bt-VEGF-A165/NRP-1 complex inhibition, chemiluminescent detection); details: for IC50: inhibition of VEGF-A165/NRP-1 complex formation; for inhibition values (plateau): 1–50 μM concentrations, IC50 not calculable in this range
T1 construct: purchased R&D Systems (Minneapolis, MN, USA)
T1 sequence (O14786 22-641 limits assumed): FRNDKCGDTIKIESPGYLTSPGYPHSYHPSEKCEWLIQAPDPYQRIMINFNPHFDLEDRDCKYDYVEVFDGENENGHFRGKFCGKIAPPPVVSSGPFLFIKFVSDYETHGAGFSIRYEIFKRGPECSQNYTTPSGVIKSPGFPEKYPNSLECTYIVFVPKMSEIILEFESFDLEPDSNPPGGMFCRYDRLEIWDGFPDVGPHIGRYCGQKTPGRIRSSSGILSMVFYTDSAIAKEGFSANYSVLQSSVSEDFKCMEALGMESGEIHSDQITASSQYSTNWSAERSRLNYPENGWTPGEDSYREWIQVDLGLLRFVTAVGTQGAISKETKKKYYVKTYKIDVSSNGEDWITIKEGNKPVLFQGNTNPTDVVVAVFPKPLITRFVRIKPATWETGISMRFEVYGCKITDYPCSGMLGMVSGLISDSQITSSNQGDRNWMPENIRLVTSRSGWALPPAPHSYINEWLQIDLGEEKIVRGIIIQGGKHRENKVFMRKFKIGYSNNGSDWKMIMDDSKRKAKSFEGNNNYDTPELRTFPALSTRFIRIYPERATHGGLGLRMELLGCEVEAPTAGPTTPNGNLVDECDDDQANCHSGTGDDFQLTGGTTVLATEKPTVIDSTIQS
Description: The method used was similar to the one previously described. The first step was a coating of a 96-well plate using 100 μL (200 ng/well) of recombinant human NRP-1. After overnight incubation at 4 °C, nonspecific binding was blocked with 0.5% BSA in PBS. Next, 50 µL of peptide in PBS in selected concentrations and 50 µL of human (bt)-VEGF-A165 (400 ng/mL) in PBS containing 4 µg/mL of heparin were added and incubated for 2 h at r.t. After washing, wells were treated with streptavidin-horseradish peroxidase conjugate in PBS (1:8000) for 45 min. Final washing was followed by an addition of 100 µL chemiluminescent substrate and the immediate quantitative determination of the luminescence. Wells incubated with (bt)-VEGF-A165 only served as a positive control (P), while not-coated by NRP-1 wells were used for a negative control (NS). Percentages of inhibition were calculated by the following formula:100% − [[(S − NS)/(P − NS)]·100%],(1) where S is the signal intensity obtained from wells incubated with the peptide. Presented data are the mean ± SEM of two or three independent experiments, each performed in triplicate.
IC50 of the peptides were calculated using the nonlinear regression function with Prism (GraphPad Software, San Diego, CA, USA). The same software was used to calculate and present the plasma stability assay results. All results are represented as an average, with error bars indicating ± SEM.
Peptides were tested by the bt-VEGF-A165/NRP-1 complex inhibition assay with chemiluminescent detection, as previously described. […] The amino acid was inserted in the same places as the Cys-Asp fragment previously. Compounds 3 and 4 were tested by the bt-VEGF-A165/NRP-1 inhibition assay at 1–50 μM concentrations.
2. Dose-response curves of synthesized peptides
The concentration-dependent inhibitory dose-curve data were plotted as the percentage inhibition normalized to the controls, with the applied curve fits calculated using GraphPad Prism (Version 5.01, GraphPad software). Data are presented as log(inhibitor) versus a normalized response-variable slope. Error bars represent means +/- SEM for two or three independent experiments. […]

[2] = Degradation assay in human plasma (enzymatic stability); format: in vitro ADME; details: human blood plasma, 37 °C; for remaining at 24 h: after 24 h, read-out: initial concentration still present in plasma; for remaining at 96 h: after 96 h, read-out: concentration remaining in plasma
Description: This assay was performed according to the method described previously. First, human blood plasma was preactivated in an Eppendorf ThermoMixer® Comfort (Hamburg, Germany) for 20 min at 37 °C (350 rpm). Next, the peptide dissolved in water (6 mg/mL; ~5 μmol/mL) was mixed with human plasma (~1 μmol/mL final concentration) and incubated in the same conditions. One-hundred microliters of the mixture was collected in 1.5-mL microtubes at selected time intervals (0–96 h), followed by protein precipitation by adding 100 μL of 98% ethanol and by vortexing for 1 min (3000 min^−1). Samples were centrifuged for 10 min at 4 °C (11,000 g), and 100 μL of supernatant was collected and lyophilized. Reconstituted in 100 μL of water, samples were subjected to RP-HPLC analysis. LC-MS analyses with a Shimadzu LCMS-2020 mass spectrometer (Duisburg, Germany) were done for selected samples. A detailed description of the method can be found in the Supplementary Materials. All results are represented as an average, with error bars indicating ± SEM determined from the results of two independent experiments performed in duplicates.
Compounds were incubated in human plasma at 37 °C, and at selected time intervals, samples were analyzed using RP-HPLC and LC-MS, as described previously. […] After 24 h, almost 50% of each compound’s initial concentration was still present in the plasma. Following the next time intervals, we observed a significant degradation of peptide 3 (~20% after 96 h) but a much slower decrease in the concentration of peptide 4 (~40% after 96 h). This is probably due to the slower detachment of Cys residue from the side chain (peptide 4) compared to detachment from the main chain (peptide 3). […] However, unmodified peptides tend to have short half-lives counted rather in minutes, e.g., ghrelin [48] and endomorphins, and modifications lead to extending this time often to only a few hours.
Table S4. Confidence intervals (95%) determined for calculated IC50.
Compound IC50 (µM) 95% Confidence Intervals
3. Analytical data of serum degradation
Analysis of plasma degradation products was carried out by HPLC-ESI-Q-MS with a Prominence HPLC system (binary pump system LC-20AD and autosampler SIL-20AC HT coupled to a SPD-20A UV detector and LCMS-2020 quadrupole mass detector).
Chromatographic separation was achieved on a Phenomenex Jupiter Proteo C12 column (250 × 4.6 mm) at 35 °C. Mobile phases consisted of H2O:TFA (99.95:0.05 v/v, phase A) and ACN:TFA (99.95:0.05 v/v, phase B) at a flow rate of 1.2 mL/min. […]
Elution was performed with a gradient as follows: t = 25 min., 0%–25% B. The injection volume was 15 μl. UV spectra were recorded at 190 nm.
The electrospray ionization (ESI) was operated in positive mode. […]

VEGF-A165/NRP-1 complex [3] = target: T1, VEGF-A165/NRP-1 complex; details: cited from earlier work; for inhibition of the formation of the VEGF-A165/NRP-1 complex: concentration of 100 μM
human blood plasma = details: 37 °C, up to 96 h
PBS = details: 22 °C, up to 4 h
[4] = parameters: method as in PMID 30881620; details: human plasma; cited from earlier work
[5] = mean ± SEM, read-out: logIC50 (converted)
[6] = reference peptide, read-out: RP IC50

IC50 (VEGF-A165/NRP-1 complex [1]; read-out: IC50): 2.5 µM
Compound: N=C(N)NCCCC[C@H](N)C(=O)NCCCC[C@H](NC(=O)[C@H](CC(=O)O)NC(=O)[C@@H](N)CS)C(=O)N[C@@H](CCN)C(=O)N1CC=C[C@H]1C(=O)N[C@@H](CCCNC(=N)N)C(=O)O [Compound 1, H-Cys-Asp-Lys(hArg)-Dab-Dhp-Arg-OH] (H-CDK(hArg)[Dab][ΔPro]R-OH)

IC50 (VEGF-A165/NRP-1 complex [1]; read-out: IC50): 2 µM
Compound: N=C(N)NCCCC[C@H](NC(=O)[C@H](CC(=O)O)NC(=O)[C@@H](N)CS)C(=O)NCCCC[C@H](N)C(=O)N[C@@H](CCN)C(=O)N1CC=C[C@H]1C(=O)N[C@@H](CCCNC(=N)N)C(=O)O [Compound 2, H-Lys(Cys-Asp-hArg)-Dab-Dhp-Arg-OH] (H-K([hArg-Asp-Cys])[Dab][ΔPro]R-OH)

inhibition values (plateau) (VEGF-A165/NRP-1 complex [1]): ~ 80% | IC50 (VEGF-A165/NRP-1 complex [1]; [5]): 0.0834 µM | remaining at 24 h [2]: ~50% | remaining at 96 h [2]: ~20%
Compound: N=C(N)NCCCC[C@H](N)C(=O)NCCCC[C@H](NC(=O)[C@@H](N)CS)C(=O)N[C@@H](CCN)C(=O)N1CC=C[C@H]1C(=O)N[C@@H](CCCNC(=N)N)C(=O)O [Compound 3, H-Cys-Lys(hArg)-Dab-Dhp-Arg-OH] (H-CK(hArg)[Dab][ΔPro]R-OH)

inhibition values (plateau) (VEGF-A165/NRP-1 complex [1]): ~ 80% | IC50 (VEGF-A165/NRP-1 complex [1]; [5]): 0.064 µM | remaining at 24 h [2]: ~50% | remaining at 96 h [2]: ~40%
Compound: N=C(N)NCCCC[C@H](NC(=O)[C@@H](N)CS)C(=O)NCCCC[C@H](N)C(=O)N[C@@H](CCN)C(=O)N1CC=C[C@H]1C(=O)N[C@@H](CCCNC(=N)N)C(=O)O [Compound 4, H-Lys(Cys-hArg)-Dab-Dhp-Arg-OH] (H-K([hArg-Cys])[Dab][ΔPro]R-OH)

inhibition at 100 µM (VEGF-A165/NRP-1 complex [1]; 100 µM concentration, read-out: percentage inhibitory effect): 46% | IC50 (VEGF-A165/NRP-1 complex [1]; read-out: IC50): 100 µM
Compound: C[C@@H](O)[C@H](N)C(=O)N[C@@H](CCCCN)C(=O)N1CCC[C@H]1C(=O)N[C@@H](CCCNC(=N)N)C(=O)O [Tuftsin, TKPR, reference compound] (H-TKPR-OH; N-terminus and C-terminus assumed)
IC50 (VEGF-A165/NRP-1 complex [3]; [6]): ≥ 100 µM

Compound: CDKPRR
inhibition of the formation of the VEGF-A165/NRP-1 complex (VEGF-A165/NRP-1 complex [3]): ~100%

Compound: DKPRR [CDKPRR lacking the N-terminal Cys]
percentage of inhibition of VEGF-A165/NRP-1 interaction (VEGF-A165/NRP-1 complex [3]; at 100 µM): ~ 20% | IC50 (VEGF-A165/NRP-1 complex [3]; [6]): > 100 µM

Compound: ERTCDKPRR [fragment of the VEGF-A165 domain encoded by exons 7 and 8]
inhibition of the formation of the VEGF-A165/NRP-1 complex (VEGF-A165/NRP-1 complex [3]): ~100%

IC50 (VEGF-A165/NRP-1 complex [1]; [5]): 0.187 µM
Compound: H-CKPRR-OH [Compound 7, CKPRR]

IC50 (VEGF-A165/NRP-1 complex [1]; read-out: IC50): 11.4 µM | fold decrease of IC50 compared to the A7R peptide (VEGF-A165/NRP-1 complex [1]; vs A7R): seven-fold
Compound: H-CLPPR-OH [Compound 5, CLPPR]

IC50 (VEGF-A165/NRP-1 complex [1]; read-out: IC50): 9.3 µM | fold increase of ligand affinity compared to tuftsin (VEGF-A165/NRP-1 complex [1]; vs tuftsin): more than 11 fold
Compound: H-CTKPR-OH [Compound 6, CTKPR]

fragment found (PBS): dimer, minor, 4 h
Compound: H-Cys-Lys(hArg)-Dab-Dhp-Arg-OH (H-CK(hArg)[Dab][ΔPro]R-OH; SMILES N=C(N)NCCCC[C@H](N)C(=O)NCCCC[C@H](NC(=O)[C@@H](N)CS)C(=O)N[C@@H](CCN)C(=O)N1CC=C[C@H]1C(=O)N[C@@H](CCCNC(=N)N)C(=O)O)
cleaved bond (human blood plasma): Cys-Lys, first_seen; also recorded: hArg-Lys; also recorded: Lys-Dab

fragment found (PBS): dimer, minor, 4 h
Compound: H-Lys(Cys-hArg)-Dab-Dhp-Arg-OH (H-K([hArg-Cys])[Dab][ΔPro]R-OH)
cleaved bond (human blood plasma): Cys-hArg, first_seen; also recorded: hArg-Lys; also recorded: Lys-Dab

Compound: H-Lys(hArg)-Dab-Dhp-Arg-OH (H-K(hArg)[Dab][Dhp]R-OH; reading uncertain; also: printed as H-Lys(hArg)-Dab-Dhp-Arg-OH) [PP, parent branched peptide, previously published NRP-1 ligand]
IC50 (VEGF-A165/NRP-1 complex [3]; parent peptide, data already published, read-out: IC50): 4.3 µM

Compound: H-Lys(hArg)-Dab-Dhp-Arg-OH [PP]
t1/2 [4]: 51 h

Compound: LPPR
share of A7R inhibition of NRP-1 activation by VEGF-A165 for which the sequence is responsible (VEGF-A165/NRP-1 complex [3]): 75%
